Experimental data reported in ChEMBL document CHEMBL1201862, “PubChem BioAssay data set” (2004).
The source made the active and inactive calls.

What was measured:
[1] = molecular target: T1, Protein RecA (Mycobacterium tuberculosis, UniProt P9WHJ3); assay: Fluorescence Cell-Free Homogeneous Dose Retest to Identify Inhibitors of RecA-Intein Splicing Activity. [Related pubchem assays (depositor defined):AID2097, AID2223, AID489010, AID492950]; format: functional
T1 sequence (P9WHJ3 whole entry): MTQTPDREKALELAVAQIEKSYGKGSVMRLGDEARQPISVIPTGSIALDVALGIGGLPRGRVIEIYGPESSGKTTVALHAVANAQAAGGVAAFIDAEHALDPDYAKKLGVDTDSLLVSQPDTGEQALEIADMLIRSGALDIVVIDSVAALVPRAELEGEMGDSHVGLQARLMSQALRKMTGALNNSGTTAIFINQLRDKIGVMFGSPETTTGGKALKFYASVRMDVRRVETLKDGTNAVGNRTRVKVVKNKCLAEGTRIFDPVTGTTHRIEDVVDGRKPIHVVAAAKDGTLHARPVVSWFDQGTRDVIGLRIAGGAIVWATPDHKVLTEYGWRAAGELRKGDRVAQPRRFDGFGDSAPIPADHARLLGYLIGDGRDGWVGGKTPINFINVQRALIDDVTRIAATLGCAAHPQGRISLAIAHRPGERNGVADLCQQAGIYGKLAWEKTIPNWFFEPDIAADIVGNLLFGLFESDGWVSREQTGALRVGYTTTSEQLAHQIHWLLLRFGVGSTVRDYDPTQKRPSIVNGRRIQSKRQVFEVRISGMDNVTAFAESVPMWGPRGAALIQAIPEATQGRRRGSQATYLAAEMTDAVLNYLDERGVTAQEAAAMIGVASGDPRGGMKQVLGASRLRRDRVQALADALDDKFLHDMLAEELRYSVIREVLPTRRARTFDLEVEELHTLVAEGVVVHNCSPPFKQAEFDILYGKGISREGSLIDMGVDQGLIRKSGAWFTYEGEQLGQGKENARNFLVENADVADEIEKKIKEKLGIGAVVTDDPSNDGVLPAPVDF

[2] = molecular target: Cysteine protease ATG4B (Homo sapiens, UniProt Q9Y4P1); format: functional;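 note: Fluorescence-based dose-response confirmation assay measuring inhibition of ATG4B activity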
[3] = molecular target: DNA (cytosine-5)-methyltransferase 1 (Homo sapiens, UniProt P26358); assay: DNMT1 methyltransferase inhibitors, confirmation, biochemical, fluorescent molecular beacon (AID 602386); format: functional
[4] = molecular target: T2, Replicative DNA helicase DnaB (Mycobacterium tuberculosis, UniProt P9WMR3); assay: DnaB intein splicing inhibitors, dose response, biochemical, cell-free fluorescence (AID 449749); format: functional
T2 sequence (P9WMR3 whole entry): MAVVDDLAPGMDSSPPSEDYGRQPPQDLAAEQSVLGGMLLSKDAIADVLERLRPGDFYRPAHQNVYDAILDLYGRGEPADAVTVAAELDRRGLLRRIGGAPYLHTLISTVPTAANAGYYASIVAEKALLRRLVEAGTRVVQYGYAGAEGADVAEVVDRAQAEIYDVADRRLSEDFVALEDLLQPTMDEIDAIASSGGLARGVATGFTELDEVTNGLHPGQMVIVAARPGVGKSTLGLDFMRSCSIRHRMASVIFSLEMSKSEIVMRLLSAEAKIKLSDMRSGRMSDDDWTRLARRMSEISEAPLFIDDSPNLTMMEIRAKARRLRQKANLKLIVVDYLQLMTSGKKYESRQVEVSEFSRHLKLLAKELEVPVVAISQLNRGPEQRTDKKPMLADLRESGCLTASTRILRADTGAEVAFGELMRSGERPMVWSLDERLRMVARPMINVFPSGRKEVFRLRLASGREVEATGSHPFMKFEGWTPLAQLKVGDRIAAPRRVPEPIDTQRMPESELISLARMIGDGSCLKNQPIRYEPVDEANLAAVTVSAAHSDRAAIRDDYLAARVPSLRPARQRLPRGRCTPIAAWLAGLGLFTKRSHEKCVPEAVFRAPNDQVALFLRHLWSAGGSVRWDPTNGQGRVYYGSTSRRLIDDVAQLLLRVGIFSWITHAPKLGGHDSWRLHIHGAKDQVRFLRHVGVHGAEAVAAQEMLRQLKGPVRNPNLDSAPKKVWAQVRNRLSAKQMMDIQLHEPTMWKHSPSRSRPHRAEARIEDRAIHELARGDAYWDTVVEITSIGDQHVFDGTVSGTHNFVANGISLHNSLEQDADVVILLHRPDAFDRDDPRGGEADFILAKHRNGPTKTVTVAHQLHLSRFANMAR

[5] = molecular target: Phospholipase A2 (Homo sapiens, UniProt P04054); format: functional;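 note: confirmatory dose-response counterscreen on phospholipase A2, testing hits that came from an ultra-high-throughput screen for ATG4B inhibitors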
[6] = molecular target: Genome polyprotein (dengue virus type 2, UniProt P29990); assay: Dengue-2 NS5 methyltransferase inhibitors, primary screen, biochemical, confirmation dose response (AID 588689); format: functional
[7] = molecular target: Cyclin-dependent kinase 1 (Homo sapiens, UniProt P06493); format: functional;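 note: Kinome-wide panel profiling, with the target listed as panel member CDC2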
[8] = molecular target: Rho-associated protein kinase 1 (Homo sapiens, UniProt Q13464); format: functional;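 note: measured within a broad kinome-wide panel profiling many kinases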
[9] = molecular target: LIM domain kinase 1 (Homo sapiens, UniProt P53667); assay: Navigating the Kinome. Panel member name: LIMK1; format: functional
[10] = molecular target: T3, Serine/threonine-protein kinase Nek2 (Homo sapiens, UniProt P51955); format: functional
T3 sequence (P51955 whole entry): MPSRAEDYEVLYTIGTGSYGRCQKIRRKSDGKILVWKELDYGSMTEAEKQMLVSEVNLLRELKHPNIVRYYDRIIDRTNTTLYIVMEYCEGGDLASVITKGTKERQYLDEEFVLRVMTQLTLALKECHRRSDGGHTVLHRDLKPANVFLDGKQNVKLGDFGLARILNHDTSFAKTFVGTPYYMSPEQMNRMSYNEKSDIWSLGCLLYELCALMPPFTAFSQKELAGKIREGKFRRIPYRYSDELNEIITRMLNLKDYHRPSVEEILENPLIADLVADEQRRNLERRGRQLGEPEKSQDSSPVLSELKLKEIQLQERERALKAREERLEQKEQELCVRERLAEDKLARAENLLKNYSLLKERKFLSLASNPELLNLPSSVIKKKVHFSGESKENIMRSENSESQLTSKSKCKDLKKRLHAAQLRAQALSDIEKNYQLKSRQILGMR

[11] = molecular target: Interleukin-1 receptor-associated kinase 4 (Homo sapiens, UniProt Q9NWZ3); format: functional
[12] = molecular target: Dual specificity tyrosine-phosphorylation-regulated kinase 1A (Homo sapiens, UniProt Q13627); format: functional;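 note: measured against DYRK1A as one member of a broad kinome profiling panel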
[13] = molecular target: Mitogen-activated protein kinase 9 (Homo sapiens, UniProt P45984); format: functional;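 note: value from a kinome panel profiling assay, MAPK9 panel entry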
[14] = molecular target: Serine/threonine-protein kinase pim-1 (Homo sapiens, UniProt P11309); format: functional
[15] = molecular target: Serine/threonine-protein kinase MRCK alpha (Homo sapiens, UniProt Q5VT25); format: functional
[16] = molecular target: RAC-gamma serine/threonine-protein kinase (Homo sapiens, UniProt Q9Y243); format: functional
[17] = molecular target: Cyclin-dependent kinase 5 (Homo sapiens, UniProt Q00535); format: functional;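 note: CDK5 measured as one member of a kinase profiling panel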
[18] = molecular target: MAP kinase-activated protein kinase 3 (Homo sapiens, UniProt Q16644); format: functional;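 note: value comes from a kinome-wide profiling panel in which MAPKAPK3 is one of the panel members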
[19] = molecular target: Serine/threonine-protein kinase PAK 1 (Homo sapiens, UniProt Q13153); format: functional
[20] = molecular target: Serine/threonine-protein kinase D2 (Homo sapiens, UniProt Q9BZL6); format: functional;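 note: measured against PRKD2 as one member of a kinome-wide kinase profiling panel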
[21] = molecular target: Serine/threonine-protein phosphatase (Homo sapiens, UniProt Q9BPW0); assay: Counterscreen for inhibitors of PP1: fluorescence-based biochemical high throughput dose response assay to identify inhibitors of Protein Phosphatase 5 (PP5). [Related pubchem assays: 2034 (Summary (PP5 inhibitors)), 1987 (PP5 inhibitors in singlate), 2235 (PP1 inhibitors in singlate)]
[22] = molecular target: Serine/threonine-protein phosphatase PP1-alpha catalytic subunit (Homo sapiens, UniProt P62136); assay: PP1 phosphatase inhibitors, dose response, biochemical, fluorescence (AID 2403);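 note: phosphatase turnover of OMFP into fluorescent 3-O-methylfluorescein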
[23] = molecular target: Prothrombin (Bos taurus, UniProt P00735); assay: thrombin inhibition, dose response, biochemical, fluorescence polarization, uHTS hits (AID 602369); format: functional
[24] = molecular target: 72 kDa type IV collagenase (Homo sapiens, UniProt P08253); assay: Dose Response validation of uHTS RPN11 inhibitor hits using a MMP-2 Fluorescence assay.; format: functional
[25] = molecular target: 26S proteasome non-ATPase regulatory subunit 14 (Homo sapiens, UniProt O00487); assay: inhibition of proteasome subunit RPN11 – biochemical, fluorescence polarization, uHTS hits, confirmation (AID 602368); format: functional
[26] = molecular target: X-box-binding protein 1 (Homo sapiens, UniProt P17861); format: functional, Cricetulus griseus;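 note: confirmatory dose-response counter-screen serving a CHOP assay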
[27] = molecular target: Ribosomal protein S6 kinase alpha-3 (Homo sapiens, UniProt P51812); format: functional;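 note: measured within a kinome-wide profiling panel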
[28] = molecular target: Casein kinase II subunit alpha (Homo sapiens, UniProt P68400); format: functional
[29] = molecular target: Serine/threonine-protein kinase PLK3 (Homo sapiens, UniProt Q9H4B4); format: functional
[30] = molecular target: MAP kinase-activated protein kinase 2 (Homo sapiens, UniProt P49137); format: functional;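 note: measured as one member of a kinome-wide kinase panel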
[31] = tested on: CHO; assay: cytotoxicity in TLR9-MyD88 CHO cells, dose response, cytotoxicity control for TLR9-MyD88 binding inhibitor project, cell-based, luminescence (AID 588339); format: functional, hamster; details: Cricetulus griseus;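 note: CHO cells stably coexpressing TLR9 and MyD88 fusions from primary screen; compound exposure lasted 48 hours before viability readout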
[32] = molecular target: Intestinal-type alkaline phosphatase (Homo sapiens, UniProt P09923); assay: inhibition of human intestinal alkaline phosphatase – biochemical, dose response (AID 488876); format: functional
[33] = molecular target: T4, Alkaline phosphatase, tissue-nonspecific isozyme (Homo sapiens, UniProt P05186); assay: TNAP enzyme inhibition by screening hits, dose response, selectivity assay for mouse IAP inhibitor project, biochemical, human TNAP, uHTS hits (AID 488906); format: functional
T4 sequence (P05186 whole entry): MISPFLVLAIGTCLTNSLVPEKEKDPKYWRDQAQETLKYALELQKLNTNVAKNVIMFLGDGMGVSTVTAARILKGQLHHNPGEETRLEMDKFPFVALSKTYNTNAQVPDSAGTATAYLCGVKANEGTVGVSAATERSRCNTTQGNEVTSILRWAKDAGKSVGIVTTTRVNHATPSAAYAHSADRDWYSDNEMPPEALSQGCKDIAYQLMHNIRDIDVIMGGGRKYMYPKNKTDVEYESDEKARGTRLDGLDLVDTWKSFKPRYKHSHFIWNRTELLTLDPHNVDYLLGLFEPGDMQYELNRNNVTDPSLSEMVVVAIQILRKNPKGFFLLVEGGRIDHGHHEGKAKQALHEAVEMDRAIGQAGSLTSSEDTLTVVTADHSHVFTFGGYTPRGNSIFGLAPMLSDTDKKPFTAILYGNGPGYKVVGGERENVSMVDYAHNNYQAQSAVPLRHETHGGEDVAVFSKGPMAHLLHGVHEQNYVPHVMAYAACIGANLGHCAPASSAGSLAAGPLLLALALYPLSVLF

[34] = molecular target: Beta Lactamase (Pseudomonas aeruginosa, UniProt Q932Y6); assay: beta-lactamase reporter inhibitor potency, dose response, artefact control for TLR9-MyD88 binding inhibitor project, BLA reporter cells, FRET fluorescence (AID 588341); format: cell-based;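 note: cell based assay in CHO-K1 cells stably expressing beta-lactamase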
[35] = molecular target: Intestinal-type alkaline phosphatase (Mus musculus, UniProt P24822); assay: PubChem AID 488785; format: functional

Cyclin-dependent kinase 1, sequence (P06493 whole entry): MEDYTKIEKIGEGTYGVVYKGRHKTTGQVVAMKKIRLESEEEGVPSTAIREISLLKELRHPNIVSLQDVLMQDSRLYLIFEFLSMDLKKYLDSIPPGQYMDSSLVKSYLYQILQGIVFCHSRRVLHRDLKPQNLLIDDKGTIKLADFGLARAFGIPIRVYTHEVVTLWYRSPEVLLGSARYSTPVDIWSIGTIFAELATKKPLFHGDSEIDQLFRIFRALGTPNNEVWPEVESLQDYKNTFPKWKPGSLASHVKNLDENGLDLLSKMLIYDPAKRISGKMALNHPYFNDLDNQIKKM
Cysteine protease ATG4B, sequence (Q9Y4P1 whole entry): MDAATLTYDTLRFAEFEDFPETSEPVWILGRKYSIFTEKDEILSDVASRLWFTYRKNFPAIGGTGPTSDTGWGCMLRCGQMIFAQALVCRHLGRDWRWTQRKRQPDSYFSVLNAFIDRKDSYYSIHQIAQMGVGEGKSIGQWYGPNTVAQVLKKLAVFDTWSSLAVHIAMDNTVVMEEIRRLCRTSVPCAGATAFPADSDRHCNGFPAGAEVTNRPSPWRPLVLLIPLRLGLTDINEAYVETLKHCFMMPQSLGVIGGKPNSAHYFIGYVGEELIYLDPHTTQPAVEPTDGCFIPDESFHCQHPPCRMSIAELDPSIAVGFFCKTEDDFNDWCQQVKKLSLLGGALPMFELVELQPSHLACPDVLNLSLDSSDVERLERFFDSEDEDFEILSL
DNA (cytosine-5)-methyltransferase 1, sequence (P26358 whole entry): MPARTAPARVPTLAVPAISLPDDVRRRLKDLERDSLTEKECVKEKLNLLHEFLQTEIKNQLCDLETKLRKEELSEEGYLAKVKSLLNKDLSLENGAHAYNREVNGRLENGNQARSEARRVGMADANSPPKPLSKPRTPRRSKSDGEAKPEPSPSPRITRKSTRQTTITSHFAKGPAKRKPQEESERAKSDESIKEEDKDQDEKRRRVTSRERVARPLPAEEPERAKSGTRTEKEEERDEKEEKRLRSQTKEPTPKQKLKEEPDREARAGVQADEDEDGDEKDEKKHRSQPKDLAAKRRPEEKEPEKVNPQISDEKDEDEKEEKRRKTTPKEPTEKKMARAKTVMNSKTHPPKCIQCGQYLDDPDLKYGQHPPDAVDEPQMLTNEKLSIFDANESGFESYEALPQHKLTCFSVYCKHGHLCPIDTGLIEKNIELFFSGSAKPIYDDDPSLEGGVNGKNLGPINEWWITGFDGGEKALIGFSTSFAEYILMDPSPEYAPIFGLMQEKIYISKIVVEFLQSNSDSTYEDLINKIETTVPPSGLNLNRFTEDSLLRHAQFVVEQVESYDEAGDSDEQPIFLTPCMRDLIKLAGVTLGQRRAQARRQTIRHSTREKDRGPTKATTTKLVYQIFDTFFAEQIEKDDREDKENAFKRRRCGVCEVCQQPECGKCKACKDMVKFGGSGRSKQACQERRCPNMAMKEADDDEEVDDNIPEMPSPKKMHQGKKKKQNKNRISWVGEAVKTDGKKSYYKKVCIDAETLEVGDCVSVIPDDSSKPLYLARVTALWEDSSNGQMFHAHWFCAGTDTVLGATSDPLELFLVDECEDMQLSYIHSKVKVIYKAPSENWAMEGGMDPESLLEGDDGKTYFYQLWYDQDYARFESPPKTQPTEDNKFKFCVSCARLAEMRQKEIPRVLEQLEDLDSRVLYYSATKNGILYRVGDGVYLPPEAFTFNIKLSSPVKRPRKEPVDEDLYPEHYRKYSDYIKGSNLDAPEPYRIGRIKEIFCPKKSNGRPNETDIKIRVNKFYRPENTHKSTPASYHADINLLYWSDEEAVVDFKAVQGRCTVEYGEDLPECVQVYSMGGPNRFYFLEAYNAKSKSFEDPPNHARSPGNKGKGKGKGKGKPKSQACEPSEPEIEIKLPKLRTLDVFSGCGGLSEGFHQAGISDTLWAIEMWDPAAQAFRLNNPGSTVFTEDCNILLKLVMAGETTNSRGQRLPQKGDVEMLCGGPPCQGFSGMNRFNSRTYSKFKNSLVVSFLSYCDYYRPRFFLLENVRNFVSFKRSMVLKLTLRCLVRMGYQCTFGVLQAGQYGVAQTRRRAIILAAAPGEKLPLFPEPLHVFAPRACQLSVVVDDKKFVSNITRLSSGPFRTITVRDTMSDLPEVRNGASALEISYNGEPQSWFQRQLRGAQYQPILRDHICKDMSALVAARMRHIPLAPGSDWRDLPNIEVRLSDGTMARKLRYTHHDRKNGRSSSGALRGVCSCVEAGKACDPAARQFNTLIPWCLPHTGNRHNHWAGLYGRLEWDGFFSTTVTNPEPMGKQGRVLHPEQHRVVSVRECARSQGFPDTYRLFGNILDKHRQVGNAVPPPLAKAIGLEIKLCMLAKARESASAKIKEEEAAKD
X-box-binding protein 1, sequence (P17861 whole entry): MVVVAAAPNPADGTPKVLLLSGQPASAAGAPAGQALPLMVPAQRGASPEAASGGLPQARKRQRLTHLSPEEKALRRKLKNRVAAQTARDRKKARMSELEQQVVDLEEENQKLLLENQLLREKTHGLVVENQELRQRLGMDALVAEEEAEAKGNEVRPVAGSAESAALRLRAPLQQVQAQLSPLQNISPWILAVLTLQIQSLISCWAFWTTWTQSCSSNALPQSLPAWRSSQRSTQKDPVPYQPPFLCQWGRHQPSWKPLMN
Serine/threonine-protein kinase PLK3, sequence (Q9H4B4 whole entry): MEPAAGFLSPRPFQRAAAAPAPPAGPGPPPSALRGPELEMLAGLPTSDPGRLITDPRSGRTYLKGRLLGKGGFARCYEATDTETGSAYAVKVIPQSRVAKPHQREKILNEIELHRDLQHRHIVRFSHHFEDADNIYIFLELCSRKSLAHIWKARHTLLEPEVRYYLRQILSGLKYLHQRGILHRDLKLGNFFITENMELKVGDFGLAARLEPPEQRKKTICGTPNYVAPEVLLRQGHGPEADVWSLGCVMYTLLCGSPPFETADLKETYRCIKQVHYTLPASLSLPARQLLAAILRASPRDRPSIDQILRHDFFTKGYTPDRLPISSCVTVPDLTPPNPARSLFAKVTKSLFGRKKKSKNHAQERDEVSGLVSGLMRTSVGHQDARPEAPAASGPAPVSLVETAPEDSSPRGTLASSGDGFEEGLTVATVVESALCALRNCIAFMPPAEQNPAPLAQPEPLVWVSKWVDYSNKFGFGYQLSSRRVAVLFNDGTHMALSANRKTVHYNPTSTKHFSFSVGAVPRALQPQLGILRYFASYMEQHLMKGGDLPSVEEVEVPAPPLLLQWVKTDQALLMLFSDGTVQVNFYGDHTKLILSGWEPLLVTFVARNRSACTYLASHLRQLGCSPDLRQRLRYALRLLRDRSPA
Serine/threonine-protein kinase MRCK alpha, sequence (Q5VT25 whole entry): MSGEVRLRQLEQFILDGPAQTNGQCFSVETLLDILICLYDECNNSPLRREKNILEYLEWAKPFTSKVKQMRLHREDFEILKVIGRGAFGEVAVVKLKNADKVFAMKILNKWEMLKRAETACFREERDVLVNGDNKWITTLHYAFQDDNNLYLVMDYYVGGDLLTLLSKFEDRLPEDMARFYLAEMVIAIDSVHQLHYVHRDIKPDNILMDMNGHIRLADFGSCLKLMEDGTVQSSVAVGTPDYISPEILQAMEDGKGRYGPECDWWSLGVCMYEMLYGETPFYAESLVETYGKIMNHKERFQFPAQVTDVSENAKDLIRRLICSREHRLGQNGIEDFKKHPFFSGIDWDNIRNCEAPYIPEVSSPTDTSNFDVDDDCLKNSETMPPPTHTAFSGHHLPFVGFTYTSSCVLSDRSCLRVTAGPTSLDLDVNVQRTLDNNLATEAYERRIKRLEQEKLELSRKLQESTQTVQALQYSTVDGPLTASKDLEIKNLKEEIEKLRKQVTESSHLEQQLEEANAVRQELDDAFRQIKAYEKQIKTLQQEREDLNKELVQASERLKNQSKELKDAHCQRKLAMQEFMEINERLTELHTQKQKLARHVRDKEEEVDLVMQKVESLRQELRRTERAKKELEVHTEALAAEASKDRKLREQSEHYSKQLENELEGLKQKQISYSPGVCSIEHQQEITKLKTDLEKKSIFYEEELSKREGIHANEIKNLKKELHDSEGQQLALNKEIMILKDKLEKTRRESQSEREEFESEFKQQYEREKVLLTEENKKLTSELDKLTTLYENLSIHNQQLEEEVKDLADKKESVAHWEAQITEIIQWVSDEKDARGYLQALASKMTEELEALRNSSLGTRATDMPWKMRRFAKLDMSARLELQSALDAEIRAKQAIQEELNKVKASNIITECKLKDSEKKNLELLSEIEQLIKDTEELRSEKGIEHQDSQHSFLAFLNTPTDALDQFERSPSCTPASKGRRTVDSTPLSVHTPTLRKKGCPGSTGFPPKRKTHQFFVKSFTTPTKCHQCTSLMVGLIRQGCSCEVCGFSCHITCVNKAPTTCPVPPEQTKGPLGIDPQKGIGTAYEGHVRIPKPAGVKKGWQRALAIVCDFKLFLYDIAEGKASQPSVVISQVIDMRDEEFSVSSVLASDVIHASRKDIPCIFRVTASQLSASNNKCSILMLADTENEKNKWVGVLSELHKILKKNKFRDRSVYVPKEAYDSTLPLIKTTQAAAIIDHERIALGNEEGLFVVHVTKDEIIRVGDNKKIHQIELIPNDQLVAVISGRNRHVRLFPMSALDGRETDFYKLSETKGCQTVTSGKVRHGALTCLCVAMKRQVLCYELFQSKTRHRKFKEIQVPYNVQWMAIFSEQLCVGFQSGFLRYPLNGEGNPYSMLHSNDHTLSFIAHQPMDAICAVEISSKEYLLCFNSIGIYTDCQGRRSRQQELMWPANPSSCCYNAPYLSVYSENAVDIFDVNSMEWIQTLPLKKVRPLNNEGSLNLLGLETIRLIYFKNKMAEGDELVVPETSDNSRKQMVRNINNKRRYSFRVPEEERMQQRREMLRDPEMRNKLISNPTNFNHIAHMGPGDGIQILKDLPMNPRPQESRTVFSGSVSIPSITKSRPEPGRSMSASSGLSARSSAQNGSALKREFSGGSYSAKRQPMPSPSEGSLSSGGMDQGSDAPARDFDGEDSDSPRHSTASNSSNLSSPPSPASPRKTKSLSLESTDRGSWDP

Compound: C/C(=C/CCC(C)[C@H]1CC[C@@]2(C)C3=C(CC[C@]12C)[C@@]1(C)CCC(=O)C(C)(C)[C@@H]1CC3)C(=O)O (stereo not given in full)
- EC50 [1]: 5.88 µM (active)
- IC50 [2]: 5.45 µM (active)
- IC50 [3]: 5.93 µM (active)
- AC50 [4]: 2.12 µM (active)
- IC50 [5]: 2.04 µM (active)
- IC50 [6]: 47.9 µM (active)

Compound: O=C(Nc1ccc(CO)cc1)c1cnn2c(-c3ccccc3)ccnc12
- Ki [7]: > 7.94 µM (inactive)
- Ki [8]: > 10 µM (inactive)
- Ki [9]: > 10 µM (inactive)
- Ki [10]: > 10 µM (inactive)
- Ki [11]: 2.51 µM (active)
- Ki [12]: 1.26 µM (active)
- Ki [13]: 0.794 µM (active)
- Ki [14]: > 10 µM (inactive)
- Ki [15]: > 10 µM (inactive)
- Ki [16]: > 10 µM (inactive)
- Ki [17]: > 10 µM (inactive)
- Ki [18]: > 10 µM (inactive)
- Ki [19]: > 10 µM (inactive)
- Ki [20]: > 10 µM (inactive)

Compound: O=C(N/N=C/c1ccccn1)c1cc(-c2ccc3ccccc3c2)[nH]n1
- IC50 [21]: > 67 µM (not active)
- IC50 [22]: 6.53 µM (active)
- IC50 [23]: 28.7 µM (active)
- IC50 [24]: > 100 µM (inactive)
- IC50 [25]: 13 µM (active)
- Absolute IC50 (XBP1) [26]: 10 µM

Compound: Nc1ccc2[nH]c(=O)cnc2c1
- Ki [27]: 7.94 µM (active)
- Ki [28]: 12.6 µM (active)
- Ki [29]: 6.31 µM (active)
- Ki [30]: 10 µM (active)

Compound: COc1cc(/C=C/C(O)=C/C(=O)/C=C/c2ccc(O)cc2)ccc1O [DEMETHOXYCURCUMIN]
- IC50 [31]: 39.3 µM (inactive)
- IC50 [32]: > 100 µM (inactive)
- IC50 [33]: > 100 µM (inactive)
- IC50 [34]: 8.09 µM (active)
- IC50 [35]: 8.38 µM (active)
